{"source": "patent US7557145B2", "about": "“Inhibition of the asexual reproduction of fungi by eugenol and/or derivatives thereof” (Henkel Kommanditgesellschaft auf Aktien (Henkel KGAA), priority 2003, dated 2009)", "format_in_all_cases": "cell-based", "key": {"[1]": {"tested_on": "Aspergillus niger (DSM 1988)", "test": "Sporulation of Aspergillus niger on a filter surface after 2 applications", "conditions": "for Sporulation [%]: filter paper treated twice with 50 μl, 3 days at 25° C.", "protocol": "Effect of Eugenol on the Sporulation of Aspergillus niger on a Filter Surface After 2 Applications\nFilter papers (2×2 cm) were disinfected and treated twice with a 1 hour interval with 50 μl of active-component solutions differing in concentration. The test specimens were then dried. The test specimens were then placed on wort agar plates and the surface of the wort agar plates was contaminated with 100 μl of a germ suspension (10^3 CFU/ml) of Aspergillus niger (DSM 1988). The plates were incubated for 3 days at 25° C. Sporulation was visually evaluated and the sporulation rate in [%] was determined. […] Sporulation was inhibited by increasing concentrations of eugenol and was 90% suppressed at 90 μm."}, "[2]": {"tested_on": "Aspergillus niger (DSM 1988)", "test": "Sporulation of Aspergillus niger on wort agar plates containing active component", "protocol": "Effect of Eugenol and Eugenol Silicic Acid Esters on the Sporulation of Aspergillus niger\nContamination of the surface of wort agar plates with 100 μl of a germ suspension (10^3 CFU/ml) of Aspergillus niger (DSM 1988). Various quantities of active component (solutions in ethanol, final concentrations in % by weight, see Table) were added to the agar plates beforehand. The plates were incubated for 3 days at 25° C. Sporulation was visually evaluated and the sporulation rate in [%] was determined. […]"}, "[3]": {"tested_on": "Aspergillus niger, DSM 1988", "test": "Sporulation of Aspergillus niger on the surface of an acetate jointing compound", "protocol": "Effect on Eugenol on the Sporulation of Aspergillis niger on the Surface of an Acetate Jointing Compound\nCommercially available, but preservative-free, one-component silicone jointing compounds curing at room temperature (acetate system, cured 2.2×2.2×0.3 cm pieces of film) were disinfected with 70% EtOH (ethanol) and placed for 24 h in active component solutions with various concentrations (in ethanol, see Table for final concentrations). The test specimens were then re-washed twice with EtOH, rinsed with water (sterile) and dried for 24 h. The test specimens were weighed before and after this treatment and the quantity of active component in the test specimens was thus determined together with the concentration of the active component solution. The test specimens were then placed on wort agar plates and thinly coated with agar in which fungal spores had been incorporated (10^5 CFU/ml Aspergillus niger, DSM 1988). The plates were incubated for 3 days at 25° C. Sporulation was visually evaluated from the test specimens and the sporulation rate in [%] was determined."}}, "data": [{"smiles": "CC(C)=CCCC(C)=CCCC(C)=CCO", "note": "[farnesol, reference compound]", "values": [{"measurement": "Sporulation [%]", "setting": "[1]; concentration 0.5 μm", "value": 100, "unit": "%"}, {"measurement": "Sporulation [%]", "setting": "[1]; concentration 5 μm", "value": 100, "unit": "%"}, {"measurement": "Sporulation [%]", "setting": "[1]; concentration 25 μm", "value": 100, "unit": "%"}, {"measurement": "Sporulation [%]", "setting": "[1]; concentration 35 μm", "value": 60, "unit": "%"}, {"measurement": "Sporulation [%]", "setting": "[1]; concentration 50 μm", "value": 80, "unit": "%"}, {"measurement": "Sporulation [%]", "setting": "[1]; concentration 70 μm", "value": 50, "unit": "%"}, {"measurement": "Sporulation [%]", "setting": "[1]; concentration 90 μm", "value": 40, "unit": "%"}, {"measurement": "Inhibition of sporulation compared with eugenol", "setting": "[1]; second, parallel test series, identical concentrations", "value": "inhibited, but to a lesser extent compared with identical concentrations of eugenol"}, {"measurement": "Sporulation [%]", "setting": "[2]; comparison test, concentration of farnesol 125 μm", "value": 50, "unit": "%"}, {"measurement": "Sporulation [%]", "setting": "[3]; concentration of farnesol 0.4 μm/g jointing compound, 3 days at 25° C.", "value": 100, "unit": "%"}, {"measurement": "Sporulation [%]", "setting": "[3]; concentration of farnesol 1.1 μm/g jointing compound, 3 days at 25° C.", "value": 100, "unit": "%"}, {"measurement": "Sporulation [%]", "setting": "[3]; concentration of farnesol 17 μm/g jointing compound, 3 days at 25° C.", "value": 30, "unit": "%"}, {"measurement": "Inhibition of sporulation compared with eugenol", "setting": "[3]; parallel test series, identical concentrations", "value": "inhibited, but to a far lesser extent compared with identical concentrations of eugenol"}]}, {"smiles": "C=CCc1ccc(O)c(OC)c1", "note": "[eugenol, 4-allyl-2-methoxyphenol]", "values": [{"measurement": "Sporulation suppressed", "setting": "[1]; at 90 μm, filter surface after 2 applications", "value": 90, "unit": "%"}, {"measurement": "Sporulation [%]", "setting": "[1]; concentration 0.6 μm", "value": 100, "unit": "%"}, {"measurement": "Sporulation [%]", "setting": "[1]; concentration 6 μm", "value": 100, "unit": "%"}, {"measurement": "Sporulation [%]", "setting": "[1]; concentration 30 μm", "value": 100, "unit": "%"}, {"measurement": "Sporulation [%]", "setting": "[1]; concentration 45 μm", "value": 100, "unit": "%"}, {"measurement": "Sporulation [%]", "setting": "[1]; concentration 60 μm", "value": 100, "unit": "%"}, {"measurement": "Sporulation [%]", "setting": "[1]; concentration 90 μm", "value": 10, "unit": "%"}, {"measurement": "Sporulation [%]", "setting": "[1]; concentration 120 μm", "value": 10, "unit": "%"}, {"measurement": "Sporulation [%]", "setting": "[2]; concentration of eugenol 4 μm in wort agar, 3 days at 25° C., visually evaluated", "value": 100, "unit": "%"}, {"measurement": "Sporulation [%]", "setting": "[2]; concentration of eugenol 40 μm in wort agar, 3 days at 25° C.", "value": 100, "unit": "%"}, {"measurement": "Sporulation [%]", "setting": "[2]; concentration of eugenol 65 μm in wort agar, 3 days at 25° C.", "value": 100, "unit": "%"}, {"measurement": "Sporulation [%]", "setting": "[2]; concentration of eugenol 90 μm in wort agar, 3 days at 25° C.", "value": 80, "unit": "%"}, {"measurement": "Sporulation [%]", "setting": "[2]; concentration of eugenol 110 μm in wort agar, 3 days at 25° C.", "value": 70, "unit": "%"}, {"measurement": "Sporulation [%]", "setting": "[2]; concentration of eugenol 220 μm in wort agar, 3 days at 25° C.", "value": 0, "unit": "%"}, {"measurement": "Sporulation [%]", "setting": "[2]; concentration of eugenol 330 μm in wort agar, 3 days at 25° C.", "value": 0, "unit": "%"}, {"measurement": "Sporulation [%]", "setting": "[2]; concentration of eugenol 650 μm in wort agar, 3 days at 25° C.", "value": 0, "unit": "%"}, {"measurement": "Concentration at which sporulation was completely suppressed", "setting": "[2]; wort agar plates, 3 days at 25° C.", "value": 220, "unit": "µM"}, {"measurement": "Sporulation [%]", "setting": "[3]; concentration of eugenol 1.7 μm/g jointing compound, 3 days at 25° C.", "value": 0, "unit": "%"}, {"measurement": "Sporulation [%]", "setting": "[3]; concentration of eugenol <1 μm/g jointing compound, 3 days at 25° C.", "value": 100, "unit": "%"}, {"measurement": "Sporulation [%]", "setting": "[3]; concentration of eugenol ca. 3 μm/g jointing compound, 3 days at 25° C.", "value": 0, "unit": "%"}, {"measurement": "Concentration at which sporulation was completely suppressed", "setting": "[3]; silicone jointing compound (acetate system), 3 days at 25° C.", "value": 1.7, "unit": "μm/g jointing compound"}]}]}
